Earlier results on 4 compounds are cited in patent US20250382198A1, “ADSORBENT AND METHOD FOR REMOVING PER- AND/OR POLYFLUOROALKYL SUBSTANCES (PFAS) IN WATER MATRICES” (University of Central Florida Research Foundation, Inc., priority 2024, published 2025).

For the compound `O=C(O)C(F)(OC(F)(F)C(F)(F)C(F)(F)F)C(F)(F)F` (centres unmarked) [GenX, hexafluoropropylene oxide dimer acid], the “Log D” value is 0.47 and the pKa was 2.84.

With `O=C(O)C(F)(F)C(F)(F)C(F)(F)F` [PFBA, Perfluorobutanoic acid], the “Log D” value is −1.22.

In the case of `O=C(O)C(F)(F)C(F)(F)C(F)(F)C(F)(F)C(F)(F)C(F)(F)C(F)(F)F` [PFOA, Perfluorooctanoic acid], the “Log D” value is reported as 1.58. For `O=S(=O)(O)C(F)(F)C(F)(F)C(F)(F)C(F)(F)C(F)(F)C(F)(F)C(F)(F)C(F)(F)F` [PFOS, Perfluorooctanesulfonic acid], the log distribution coefficient (Log D) is listed as 3.05.
